Measured values taken from US9918990B2, “Substituted pyrrolo[2,3-c]pyridines and pyrazolo[3,4-c]pyridines as BET protein inhibitors” (Incyte Corporation, priority 2013, dated 2018).
pIC50: −log10 of the molar value. Where a name gives a salt, the structure may show the parent alone.

Key:
C-myc = assay: KMS.12.BM C-myc ELISA assay; type: cell-based; conditions: Homo sapiens; KMS.12.BM cells, 2 hours, concentration required for 50% C-myc inhibition
Summary of the method: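 Human myeloma KMS.12.BM cells in RPMI/10% FBS were exposed to a compound concentration range for 2 h, then lysed with protease inhibitors. C-myc in clarified lysates was measured by ELISA. IC50 is the concentration giving 50% C-myc inhibition relative to untreated cells.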

BRD4-BD1 = BRD4-BD1 (Homo sapiens (Human), UniProt O60885); assay: BRD4 AlphaScreen assay, BRD4-BD1; type: binding; conditions: H4Ac4 peptide, 75 min, room temperature, read-out: BRD4 BD-1 enzyme IC50
Summary of the method: (§1)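 AlphaScreen read after 75 min dark incubation at room temperature, inhibitors serially diluted in DMSO and added before other components. IC50 from fit of percent control activity versus log inhibitor concentration.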

KMS.12.BM cells = assay: KMS.12.BM cell viability assay (Cell Titer-GLO, ATP quantitation); type: cell-based; conditions: Homo sapiens, 72 h, 3 days, concentration required for 50% cell death, read-out: KMS cellular IC50
Summary of the method: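 Human myeloma KMS.12.BM cells, 5000 cells/well in RPMI with 10% FBS, were exposed to a compound concentration range for 3 days. Viability was read by Cell Titer-GLO ATP luminescence relative to untreated cells; IC50 is the concentration giving 50% cell death.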

BRD4-BD2 = BRD4-BD2 (Homo sapiens (Human), UniProt O60885); assay: BRD4 AlphaScreen assay, BRD4-BD2; type: binding; conditions: H4Ac4 peptide, 75 min, room temperature, read-out: BRD4 BD-2 enzyme IC50
Summary of the method: as §1

Structure (SMILES)	pIC50 (C-myc)	pIC50 (BRD4-BD1)	pIC50 (BRD4-BD2)	pIC50 (KMS.12.BM cells)
CC(=O)N1CCN(CCn2c(=O)n(C)c3ccc(-c4cn(C)c(=O)c5[nH]ccc45)c(OCC4CCC4)c32)CC1 [Example 66, 3-(2-(4-Acetylpiperazin-1-yl)ethyl)-4-(cyclobutylmethoxy)-1-methyl-5-(6-methyl-7-oxo-6,7-dihydro-1H-pyrrolo[2,3-c]pyridin-4-yl)-1H-benzo[d]imidazol-2(3H)-one]	≥ 6.00	> 7.00	> 7.00	≥ 6.00
Cn1cc(-c2ccc3c([nH]c(=O)n3CCN3CCOCC3)c2Oc2ccccc2)c2cc[nH]c2c1=O [Example 69, 5-(6-Methyl-7-oxo-6,7-dihydro-1H-pyrrolo[2,3-c]pyridin-4-yl)-1-(2-morpholin-4-ylethyl)-4-phenoxy-1,3-dihydro-2H-benzimidazol-2-one trifluoroacetate]	≥ 6.00	> 7.00	> 7.00	≥ 6.00
C[C@@H]1CN(CCn2c(=O)[nH]c3c(Oc4ccccc4)c(-c4cn(C)c(=O)c5[nH]ccc45)ccc32)C[C@H](C)O1 [Example 70, 1-{2-[(2R,6S)-2,6-Dimethylmorpholin-4-yl]ethyl}-5-(6-methyl-7-oxo-6,7-dihydro-1H-pyrrolo[2,3-c]pyridin-4-yl)-4-phenoxy-1,3-dihydro-2H-benzimidazol-2-one trifluoroacetate]	≥ 6.00	> 7.00	> 7.00	≥ 6.00
Cn1cc(-c2ccc3ncc(=O)[nH]c3c2Oc2ccc(F)cc2F)c2cn[nH]c2c1=O [Example 75, 8-(2,4-Difluorophenoxy)-7-(6-methyl-7-oxo-6,7-dihydro-1H-pyrazolo[3,4-c]pyridin-4-yl)quinoxalin-2(1H)-one]	≥ 6.00	> 7.00	> 7.00	≥ 6.00
CC(O)c1cc(-c2cn(C)c(=O)c3[nH]ncc23)c(Oc2ccc(F)cc2F)c2ncn(C)c12 (centres unmarked) [Example 78, 4-[4-(2,4-Difluorophenoxy)-7-(1-hydroxyethyl)-1-methyl-1H-benzimidazol-5-yl]-6-methyl-1,6-dihydro-7H-pyrazolo[3,4-c]pyridin-7-one]	≥ 6.00	> 7.00	> 7.00	≥ 6.00
Cn1cc(-c2ccc3c([nH]c(=O)n3C)c2Oc2ccc(Cl)cc2)c2cc[nH]c2c1=O [Example 86, 4-(4-Chlorophenoxy)-1-methyl-5-(6-methyl-7-oxo-6,7-dihydro-1H-pyrrolo[2,3-c]pyridin-4-yl)-1,3-dihydro-2H-benzimidazol-2-one]	≥ 6.00	> 7.00	> 7.00	≥ 6.00
Cn1cc(-c2ccc3c([nH]c(=O)n3C)c2Oc2cccc(Cl)c2)c2cc[nH]c2c1=O [Example 87, 4-(3-Chlorophenoxy)-1-methyl-5-(6-methyl-7-oxo-6,7-dihydro-1H-pyrrolo[2,3-c]pyridin-4-yl)-1,3-dihydro-2H-benzimidazol-2-one]	≥ 6.00	> 7.00	> 7.00	≥ 6.00
Cn1cc(-c2ccc3c([nH]c(=O)n3C)c2OC2CCCOC2)c2cc[nH]c2c1=O (centres unmarked) [Example 91, 1-Methyl-5-(6-methyl-7-oxo-6,7-dihydro-1H-pyrrolo[2,3-c]pyridin-4-yl)-4-(tetrahydro-2H-pyran-3-yloxy)-1,3-dihydro-2H-benzimidazol-2-one]	≥ 6.00	> 7.00	> 7.00	≥ 6.00
Cn1cc(-c2ccc3c(c2Oc2ccccc2)NC(=O)CO3)c2cc[nH]c2c1=O [Example 94, 6-(6-Methyl-7-oxo-6,7-dihydro-1H-pyrrolo[2,3-c]pyridin-4-yl)-5-phenoxy-2H-1,4-benzoxazin-3(4H)-one]	≥ 6.00	> 7.00	> 7.00	≥ 6.00
Cn1cc(-c2ccc3ocnc3c2Oc2ccccc2)c2cc[nH]c2c1=O [Example 96, 6-Methyl-4-(4-phenoxy-1,3-benzoxazol-5-yl)-1,6-dihydro-7H-pyrrolo[2,3-c]pyridin-7-one]	≥ 6.00	> 7.00	> 7.00	≥ 6.00
Cn1cc(-c2ccc3oc(CN)nc3c2Oc2ccccc2)c2cc[nH]c2c1=O [Example 103, 4-[2-(Aminomethyl)-4-phenoxy-1,3-benzoxazol-5-yl]-6-methyl-1,6-dihydro-7H-pyrrolo[2,3-c]pyridin-7-one]	≥ 6.00	> 7.00	> 7.00	≥ 6.00

Now from value to compound, other results behind:

pIC50 (C-myc)	pIC50 (BRD4-BD1)	pIC50 (BRD4-BD2)	Structure (SMILES)	pIC50 (KMS.12.BM cells)
≥ 6.00	> 7.00	> 7.00	Cn1cc(-c2ccc3c(c2OCC2CCC2)n(CCCC#N)c(=O)n3C)c2cc[nH]c2c1=O [Example 61, 4-[7-(Cyclobutylmethoxy)-3-methyl-6-(6-methyl-7-oxo-6,7-dihydro-1H-pyrrolo[2,3-c]pyridin-4-yl)-2-oxo-2,3-dihydro-1H-benzimidazol-1-yl]butanenitrile]	≥ 6.00
≥ 6.00	> 7.00	> 7.00	Cn1cc(-c2ccc3c(c2OCC2CCC2)n(CCC#N)c(=O)n3C)c2cc[nH]c2c1=O [Example 62, 3-[7-(Cyclobutylmethoxy)-3-methyl-6-(6-methyl-7-oxo-6,7-dihydro-1H-pyrrolo[2,3-c]pyridin-4-yl)-2-oxo-2,3-dihydro-1H-benzimidazol-1-yl]propanenitrile]	≥ 6.00
≥ 6.00	> 7.00	> 7.00	Cn1cc(-c2ccc3c(c2OCC2CCC2)n(Cc2ccccc2)c(=O)n3C)c2cc[nH]c2c1=O [Example 64, 3-Benzyl-4-(cyclobutylmethoxy)-1-methyl-5-(6-methyl-7-oxo-6,7-dihydro-1H-pyrrolo[2,3-c]pyridin-4-yl)-1,3-dihydro-2H-benzimidazol-2-one]	≥ 6.00
≥ 6.00	> 7.00	> 7.00	CN1CCN(CCn2c(=O)n(C)c3ccc(-c4cn(C)c(=O)c5[nH]ccc45)c(OCC4CCC4)c32)CC1 [Example 68, 4-(Cyclobutylmethoxy)-1-methyl-5-(6-methyl-7-oxo-6,7-dihydro-1H-pyrrolo[2,3-c]pyridin-4-yl)-3-[2-(4-methylpiperazin-1-yl)ethyl]-1,3-dihydro-2H-benzimidazol-2-one]	≥ 6.00
≥ 6.00	> 7.00	> 7.00	Cn1cc(-c2ccc3c([nH]c(=O)n3C)c2OCC2CC2)c2cc[nH]c2c1=O [Example 74, 4-(Cyclopropylmethoxy)-1-methyl-5-(6-methyl-7-oxo-6,7-dihydro-1H-pyrrolo[2,3-c]pyridin-4-yl)-1,3-dihydro-2H-benzimidazol-2-one]	≥ 6.00
≥ 6.00	> 7.00	> 7.00	Cn1cc(-c2ccc3c(cnn3C)c2OCC2CC2)c2cc[nH]c2c1=O [Example 76, 4-[4-(Cyclopropylmethoxy)-1-methyl-1H-indazol-5-yl]-6-methyl-1,6-dihydro-7H-pyrrolo[2,3-c]pyridin-7-one]	≥ 6.00
≥ 6.00	> 7.00	> 7.00	Cn1cc(-c2ccc3c(cnn3C)c2OCC2CC2)c2cn[nH]c2c1=O [Example 77, 4-[4-(Cyclopropylmethoxy)-1-methyl-1H-indazol-5-yl]-6-methyl-1,6-dihydro-7H-pyrazolo[3,4-c]pyridin-7-one]	≥ 6.00
≥ 6.00	> 7.00	> 7.00	Cn1cc(-c2ccc3c([nH]c(=O)n3C)c2OCC2CCCCC2)c2cc[nH]c2c1=O [Example 88, 4-(Cyclohexylmethoxy)-1-methyl-5-(6-methyl-7-oxo-6,7-dihydro-1H-pyrrolo[2,3-c]pyridin-4-yl)-1,3-dihydro-2H-benzimidazol-2-one]	≥ 6.00
≥ 6.00	> 7.00	> 7.00	Cn1cc(-c2ccc3c([nH]c(=O)n3C)c2OC2CCC2)c2cc[nH]c2c1=O [Example 89, 4-(Cyclobutyloxy)-1-methyl-5-(6-methyl-7-oxo-6,7-dihydro-1H-pyrrolo[2,3-c]pyridin-4-yl)-1,3-dihydro-2H-benzimidazol-2-one]	≥ 6.00
≥ 6.00	> 7.00	> 7.00	Cn1cc(-c2ccc3c([nH]c(=O)n3C)c2OC2CCCCC2)c2cc[nH]c2c1=O [Example 90, 4-(Cyclohexyloxy)-1-methyl-5-(6-methyl-7-oxo-6,7-dihydro-1H-pyrrolo[2,3-c]pyridin-4-yl)-1,3-dihydro-2H-benzimidazol-2-one]	≥ 6.00
≥ 6.00	> 7.00	> 7.00	Cn1cc(-c2ccc3c([nH]c(=O)n3C)c2OCC2CCCC2)c2cc[nH]c2c1=O [Example 92, 4-(Cyclopentylmethoxy)-1-methyl-5-(6-methyl-7-oxo-6,7-dihydro-1H-pyrrolo[2,3-c]pyridin-4-yl)-1,3-dihydro-2H-benzimidazol-2-one]	≥ 6.00
≥ 6.00	> 7.00	> 7.00	Cn1cc(-c2ccc3c([nH]c(=O)n3C)c2OC2CCCC2)c2cc[nH]c2c1=O [Example 93, 4-(Cyclopentyloxy)-1-methyl-5-(6-methyl-7-oxo-6,7-dihydro-1H-pyrrolo[2,3-c]pyridin-4-yl)-1,3-dihydro-2H-benzimidazol-2-one]	≥ 6.00
